The structures appear in SMILES notation.

For data set [1], the target named is Voltage-gated inwardly rectifying potassium channel KCNH2 (Homo sapiens, UniProt Q12809). The experiment in a line: Displacement of [3H]-dofetilide from human hERG.
The target of data set [2] is T1, Glutamate receptor 2 (Homo sapiens, UniProt P42262). Kind of data set: Positive modulation of human GluA2 flip receptor by FLIPR assay relative to cyclothiazide. Also noted: concentration or dose not given beside the values.
T1 sequence (P42262 whole entry): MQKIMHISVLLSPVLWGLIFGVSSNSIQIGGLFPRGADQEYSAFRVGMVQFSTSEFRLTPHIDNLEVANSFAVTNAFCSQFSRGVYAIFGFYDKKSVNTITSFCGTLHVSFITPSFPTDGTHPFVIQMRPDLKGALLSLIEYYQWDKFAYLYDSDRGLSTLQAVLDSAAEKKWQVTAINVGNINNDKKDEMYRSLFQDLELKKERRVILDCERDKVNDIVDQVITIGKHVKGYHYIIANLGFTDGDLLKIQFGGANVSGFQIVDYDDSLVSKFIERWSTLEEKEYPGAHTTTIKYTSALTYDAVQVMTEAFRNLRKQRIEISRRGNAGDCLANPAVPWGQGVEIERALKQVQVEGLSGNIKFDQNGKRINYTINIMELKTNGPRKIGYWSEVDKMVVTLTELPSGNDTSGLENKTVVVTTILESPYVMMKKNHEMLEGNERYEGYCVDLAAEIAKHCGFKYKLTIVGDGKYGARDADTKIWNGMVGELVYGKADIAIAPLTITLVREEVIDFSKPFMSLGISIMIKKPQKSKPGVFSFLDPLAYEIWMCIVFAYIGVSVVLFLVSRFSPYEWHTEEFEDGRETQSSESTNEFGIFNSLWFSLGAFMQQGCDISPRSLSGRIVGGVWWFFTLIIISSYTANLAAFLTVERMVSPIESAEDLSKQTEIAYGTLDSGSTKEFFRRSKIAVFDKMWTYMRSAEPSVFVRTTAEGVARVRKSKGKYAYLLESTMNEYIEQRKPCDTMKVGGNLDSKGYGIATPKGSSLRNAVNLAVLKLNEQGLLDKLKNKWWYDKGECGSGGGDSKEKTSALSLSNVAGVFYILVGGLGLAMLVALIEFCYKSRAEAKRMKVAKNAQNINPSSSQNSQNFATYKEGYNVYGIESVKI
The subject of another data set is Liver microsomes. The experiment in a line: Intrinsic clearance in human liver microsomes. Type of data set: ADME, Microsome. (In general: Liver microsomes are a subcellular fraction often used to study metabolism.)
In data set [3] the target is T1, Glutamate receptor 2. The experiment in a line: Positive modulation of human GluA2 flip receptor by FLIPR assay.
A short description of data set [4]: Aqueous solubility of the compound. It counts as physicochemical. Particulars: aqueous medium.
A short description of data set [5]: Half life in rat. It counts as ADME, organism-based. Particulars: in vivo.
Data set [6] in a line: Ratio of drug level in brain to blood in rat.

Sequence of Voltage-gated inwardly rectifying potassium channel KCNH2 (Q12809 whole entry): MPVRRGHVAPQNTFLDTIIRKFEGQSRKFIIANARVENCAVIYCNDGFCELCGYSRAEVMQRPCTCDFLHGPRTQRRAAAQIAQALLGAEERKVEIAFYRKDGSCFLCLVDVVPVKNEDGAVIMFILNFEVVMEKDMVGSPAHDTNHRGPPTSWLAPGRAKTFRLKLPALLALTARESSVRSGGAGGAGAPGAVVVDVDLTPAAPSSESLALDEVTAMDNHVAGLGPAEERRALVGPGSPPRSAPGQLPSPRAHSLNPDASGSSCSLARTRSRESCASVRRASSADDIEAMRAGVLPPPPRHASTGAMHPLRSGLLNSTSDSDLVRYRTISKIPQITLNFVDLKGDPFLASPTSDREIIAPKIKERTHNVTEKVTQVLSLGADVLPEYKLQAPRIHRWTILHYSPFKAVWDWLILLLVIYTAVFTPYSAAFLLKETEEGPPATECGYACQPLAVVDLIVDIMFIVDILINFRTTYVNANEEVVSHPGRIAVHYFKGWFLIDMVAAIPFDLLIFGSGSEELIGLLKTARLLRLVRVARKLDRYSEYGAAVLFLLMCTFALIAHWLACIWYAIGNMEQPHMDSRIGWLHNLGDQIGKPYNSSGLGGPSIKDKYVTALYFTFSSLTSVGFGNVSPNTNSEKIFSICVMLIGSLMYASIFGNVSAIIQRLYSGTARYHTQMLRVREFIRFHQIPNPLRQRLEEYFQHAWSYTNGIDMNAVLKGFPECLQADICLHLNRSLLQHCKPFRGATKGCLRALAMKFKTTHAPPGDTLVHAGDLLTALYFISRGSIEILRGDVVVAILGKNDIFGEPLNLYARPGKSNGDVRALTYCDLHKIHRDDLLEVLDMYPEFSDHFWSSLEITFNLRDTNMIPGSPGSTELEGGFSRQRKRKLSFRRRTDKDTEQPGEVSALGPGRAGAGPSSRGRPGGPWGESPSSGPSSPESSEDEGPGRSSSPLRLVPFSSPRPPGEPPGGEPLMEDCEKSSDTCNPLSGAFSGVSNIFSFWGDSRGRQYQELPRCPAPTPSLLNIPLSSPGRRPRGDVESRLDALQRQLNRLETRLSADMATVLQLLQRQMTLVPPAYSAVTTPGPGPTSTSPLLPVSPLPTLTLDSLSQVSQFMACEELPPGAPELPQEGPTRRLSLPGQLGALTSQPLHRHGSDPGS

The IC50 is the concentration needed to halve the response being measured. The EC50 is the concentration that produces a half-maximal response. On to `CC(C)S(=O)(=O)N[C@H]1CN(C)CC1c1ccc(-c2ccc(F)nc2)cc1` (single isomer, unassigned), for which, in data set [1], the IC50 is 1 µM. Further, the Activity at Glutamate receptor 2 [2] stood at 117%. This compound also yielded a CL in the data set on Liver microsomes of 0.8 mL/min/g. A half-maximal response at Glutamate receptor 2 [3] (EC50) required 5 µM.
On to `CC(C)S(=O)(=O)N[C@H]1CN(c2ccccc2)CC1c1ccc(-c2ccc(F)nc2)cc1` (single isomer, unassigned), for which the IC50 in data set [1] is 0.08 µM. Also, on Glutamate receptor 2 [2], the Activity stood at 74%. In addition, the EC50 on Glutamate receptor 2 [3] was 4 µM.
Turning to `CC(C)S(=O)(=O)N[C@H]1CN(C)CC1c1ccc(-c2cccs2)cc1` (single isomer, unassigned), the IC50 in data set [1] is greater than 63 µM. For the same compound, the Activity on Glutamate receptor 2 [2] came to 29%. Also, the midpoint of the response at Glutamate receptor 2 [3], the EC50, lay at 20 µM.
Regarding `CC(C)S(=O)(=O)N[C@H]1CN(C)CC1c1ccc(-c2ccsc2)cc1` (single isomer, unassigned), the IC50 in data set [1] was determined as 4 µM. At Glutamate receptor 2 [2], this compound registered an Activity of 106%. Also, on Glutamate receptor 2 [3], the EC50 worked out at 3.2 µM.
Take `CC(C)S(=O)(=O)N[C@@H]1COCC1c1ccc(-c2ccc(C#N)cc2)cc1` (single isomer, unassigned): the IC50 in data set [1] came to 12.6 µM. Moreover, the Activity at Glutamate receptor 2 [2] turned out to be 112%. The same compound came in with an EC50 on Glutamate receptor 2 [3] of 0.5 µM.
At Glutamate receptor 2 [2], `CC(=O)c1cccc(-c2ccc(C3COC[C@H]3NS(=O)(=O)C(C)C)cc2)c1` (single isomer, unassigned) had an Activity of 124%. In addition, on Glutamate receptor 2 [3], the EC50 worked out at 0.1 µM.
In data set [1], `CC(C)S(=O)(=O)N[C@@H]1COCC1c1ccc(-c2ccc(F)nc2)cc1` (single isomer, unassigned) returned an IC50 of 12.6 µM. The compound also gave an Activity at Glutamate receptor 2 [2] of 125%. For the same compound, it took 0.3 µM to reach a half-maximal effect on Glutamate receptor 2 [3] (EC50).
In data set [1], `CC(C)S(=O)(=O)N[C@@H]1COCC1c1ccc(-c2cncc(F)c2)cc1` (single isomer, unassigned) registered a half-inhibitory concentration (IC50) greater than 63 µM. On Glutamate receptor 2 [2], this compound showed an Activity of 131%. This compound registered a CL in the data set with Liver microsomes of 0.6 mL/min/g. The same compound registered an EC50 at Glutamate receptor 2 [3] of 0.3 µM.
For the compound `CC(C)S(=O)(=O)N[C@@H]1COCC1c1ccc(-c2ccc(F)cn2)cc1` (single isomer, unassigned), in data set [1], the IC50 was greater than 63 µM. The same compound registered an Activity at Glutamate receptor 2 [2] of 117%. For the same compound, the CL in the data set on Liver microsomes amounted to 0.8 mL/min/g. On Glutamate receptor 2 [3], this compound returned an EC50 of 0.3 µM.
As for `CC(C)S(=O)(=O)N[C@@H]1COCC1c1ccc(-c2cccs2)cc1` (single isomer, unassigned), in data set [1], the IC50 was greater than 63 µM. This compound gave an Activity at Glutamate receptor 2 [2] of 117%. At Glutamate receptor 2 [3], this compound displayed an EC50 of 0.3 µM.
Turning to `CC(C)S(=O)(=O)N[C@@H]1COCC1c1ccc(-c2ccsc2)cc1` (single isomer, unassigned), the Activity on Glutamate receptor 2 [2] was 120%. The compound further returned an EC50 at Glutamate receptor 2 [3] of 0.4 µM.
The solubility is the concentration that dissolves in the medium under given conditions. In data set [4], `CC(C)S(=O)(=O)N[C@H]1CN(C)CC1c1ccc(-c2cccc(NS(C)(=O)=O)c2)cc1` (single isomer, unassigned) gave a solubility greater than 9000 µg/mL. Besides, in data set [1], the IC50 came to 31.6 µM. On Glutamate receptor 2 [2], this compound registered an Activity of 124%. For the same compound, the EC50 at Glutamate receptor 2 [3] came out at 0.3 µM.
In data set [1], `CCN1CC(c2ccc(-c3cccc(NS(C)(=O)=O)c3)cc2)[C@@H](NS(=O)(=O)C(C)C)C1` (single isomer, unassigned) showed an IC50 of 2.5 µM. Moreover, the Activity at Glutamate receptor 2 [2] is 111%. In the data set on Liver microsomes, this compound showed a CL of 0.7 mL/min/g. Moreover, the EC50 on Glutamate receptor 2 [3] came out at 1.6 µM.
At Glutamate receptor 2 [2], `CC(C)N1CC(c2ccc(-c3cccc(NS(C)(=O)=O)c3)cc2)[C@@H](NS(=O)(=O)C(C)C)C1` (single isomer, unassigned) registered an Activity of 89%. In the data set with Liver microsomes, this compound yielded a CL of 0.7 mL/min/g.
On to `CC(C)S(=O)(=O)N[C@H]1CN(c2ccccc2)CC1c1ccc(-c2cccc(NS(C)(=O)=O)c2)cc1` (single isomer, unassigned), for which the Activity at Glutamate receptor 2 [2] is 38%. The compound further yielded an EC50 on Glutamate receptor 2 [3] of 5 µM.
One may read the half-life as how long it takes for the measured level to halve. As a reminder, the Kp is tissue or fluid exposure divided by exposure in the circulation. With `CC(C)S(=O)(=O)N[C@H]1CN(C)CC1c1ccc(-c2ccc(C#N)cc2)cc1` (single isomer, unassigned), the solubility in data set [4] was greater than 2700 µg/mL. This compound gave a half-life in data set [5] greater than 120 min. Moreover, the Activity on Glutamate receptor 2 [2] came to 109%. The Kp in data set [6] came out at 1.8. The compound further returned a CL with Liver microsomes of 0.8 mL/min/g. The EC50 on Glutamate receptor 2 [3] came out at 5 µM.
At Glutamate receptor 2 [2], `CCN1CC(c2ccc(-c3ccc(C#N)cc3)cc2)[C@@H](NS(=O)(=O)C(C)C)C1` (single isomer, unassigned) registered an Activity of 90%. For the same compound, the CL in the data set on Liver microsomes came to 1.2 mL/min/g. The compound further yielded an EC50 at Glutamate receptor 2 [3] of 7.9 µM.
At Glutamate receptor 2 [2], `CC(C)N1CC(c2ccc(-c3ccc(C#N)cc3)cc2)[C@@H](NS(=O)(=O)C(C)C)C1` (single isomer, unassigned) had an Activity of 30%. Moreover, the EC50 on Glutamate receptor 2 [3] amounted to 20 µM.
Turning to `CC(C)S(=O)(=O)N[C@H]1CN(c2ccccc2)CC1c1ccc(-c2ccc(C#N)cc2)cc1` (single isomer, unassigned), in data set [1], the half-inhibitory concentration (IC50) came out at 0.8 µM. For the same compound, at Glutamate receptor 2 [2], the Activity is 48%. In addition, the EC50 on Glutamate receptor 2 [3] came out at 6.2 µM.
`CC(C)S(=O)(=O)N[C@H]1CN(C)CC1c1ccc(-c2cccc(S(C)(=O)=O)c2)cc1` (single isomer, unassigned) gave an Activity at Glutamate receptor 2 [2] of 75%. It took 5 µM to reach a half-maximal effect at Glutamate receptor 2 [3] (EC50).
For `CC(=O)Nc1cccc(-c2ccc(C3CN(C)C[C@@H]3NS(=O)(=O)C(C)C)cc2)c1` (single isomer, unassigned), the IC50 in data set [1] came to 12.6 µM. The same compound returned an Activity on Glutamate receptor 2 [2] of 79%. Also, on Glutamate receptor 2 [3], the midpoint of the response, the EC50, lay at 4 µM.
The corresponding values for `CC(=O)c1cccc(-c2ccc(C3CN(C)C[C@@H]3NS(=O)(=O)C(C)C)cc2)c1` (single isomer, unassigned) are 7.9 µM, 73% and 6.3 µM.
At Glutamate receptor 2 [2], `CC(C)S(=O)(=O)N[C@H]1CN(C)CC1c1ccc(-c2cccc(C(F)(F)F)c2)cc1` (single isomer, unassigned) displayed an Activity of 26%. For the same compound, the EC50 on Glutamate receptor 2 [3] stood at 79.4 µM.
On the same counts, the results for `CC(C)S(=O)(=O)N[C@H]1CN(C)CC1c1ccc(-c2ccccc2F)cc1` (single isomer, unassigned) are 20% and 2.5 µM.
`CC(C)S(=O)(=O)N[C@H]1CN(C)CC1c1ccc(-c2cccnc2)cc1` (single isomer, unassigned): the IC50 in data set [1] is 31.6 µM. The compound also displayed an Activity at Glutamate receptor 2 [2] of 100%. This compound had an EC50 at Glutamate receptor 2 [3] of 4 µM.
Regarding `CC(C)S(=O)(=O)N[C@H]1CN(C)CC1c1ccc(-c2cccnc2F)cc1` (single isomer, unassigned), the IC50 in data set [1] came to 6.3 µM. At Glutamate receptor 2 [2], this compound had an Activity of 101%. The EC50 at Glutamate receptor 2 [3] turned out to be 2.5 µM.

For the origin of these results see ChEMBL document CHEMBL1287696, “N-substituted pyrrolidines and tetrahydrofurans as novel AMPAR positive modulators” (Bioorg Med Chem Lett, 2010).
